US10864192B2, “Compositions and methods for inhibiting brain trauma-induced neurodegeneration and related conditions” (priority 2016, dated 2020)

What was measured:
[1] = Plasma concentrations of phenserine and its metabolites in human plasma; format: in vivo
Method: The relationship between pharmacokinetic and pharmacodynamics evaluated in FIG. 15 was evaluated in aged volunteers. A total of 32 subjects (60-80 years of age, 11 males/21 females) were screened and enrolled. All participants provided informed consent, the conduct of the study were approved and overseen by the local Review IRB.
For pharmacokinetic (blood concentrations of primary drug and select metabolites) a dose […] additionally was evaluated.
These were centrifuged within 15 min of collection, and stored in a freezer at −70° C. freezer in marked polypropylene tubes until analysis. Phenserine levels were quantified by liquid chromatography/mass spectrometry (LC/MS/MS). In brief, analyses were undertaken on Perkin-Elmer (PE, Norwalk, USA) high performance liquid chromatographic (HPLC) instrumentation. Compound separation was performed on a Phenomenex LUNA C18 column (5 μM, 2.0 mm×150 mm; Torrance, USA), with a Phenomenex guard column (2 mm×30 mm). The mobile phase was 60% acetonitrile (HPLC grade) plus 40% ammonium acetate (v/v) with a flow rate of 0.4 mL/min. […] Thereafter, 2 mL of tert-butyl methyl ether was added and the sample was mixed and flash frozen. The organic layer was decanted, dried under a stream of nitrogen and reconstituted into 250 μL of mobile phase. Of this, a 60 μL sample was then injected into the HPLC.

[2] = target: acetylcholinesterase (AChE) (Homo sapiens (Human), UniProt P22303); assay: RBC AChE inhibition after oral phenserine in humans; format: in vivo; conditions: 15 mg immediate release dose, TMax (1 hr)
Method: For pharmacodynamics AChE inhibition analyses: erythrocyte AChE levels were evaluated in whole blood samples by using methods known in the art. Briefly, duplicate samples of freshly collected whole blood were analyzed. Cholinesterase activity, U/L, was detected at 37° C. using a differential pH procedure on a Eurochem CL-10 (Rome, Italy). The time-course of enzyme inhibition was determined for each subject by expressing each mean post-phenserine administration AChE concentration as a fraction of the mean pre-administration resting level of AChE within the same individual. This value was then subtracted from 1 and multiplied by 100% to provide percent AchE inhibition.

[3] = target: amyloid precursor protein (APP) (Mus musculus (Mouse), UniProt P12023); assay: Amyloid precursor protein in primary cortical neurons (Western blot); format: cell-based; conditions: 48 hr
Method: Primary cortical neurons were harvested and isolated from mice, and then were cultured in line with methodologies known in the art. In brief, embryonic day 15-18 mouse pups were obtained from timed pregnant female mice (5 pups). Within a laminar flow cell culture hood, the brain was removed from these mouse pups and the meninges and blood vessels were carefully removed. […] Maintained on wet ice, individual cells were then isolated by titrating some 10 times to dissociate cells by use of using a glass pasture pipette with a fire polished tip. […]
Following maintenance in cell culture (>24 hr) primary cortical neurons were challenged to known concentrations of experimental drugs for 48 hr, or vehicle (culture media) alone. […] Quantification of select proteins, for example AAP was undertaken by Western Blotting using the APP N-terminal antibody (22C11) obtained from Chemicon (Temecula, Calif.). The housekeeping protein β-actin quantified in the same samples to allow normalization, and was probed with anti-β-actin (Chemicon). The Western blots were developed by using chemiluminescence (PIERCE), were visualized with a Phospholmager (BioRad, Hercules, Calif.), and resulting bands were quantified by QuantityOne software (BioRad).

[4] = test system: Sprague-Dawley rats; assay: Focal cerebral ischemia model (MCA ligation), pre-treatment; format: in vivo, rat
Method: (§1) Briefly, Human neuroblastoma SH-SY5Y cells were incubated in oxygen-glucose deprivation and hypoxia using serum- and glucose-free media and 95% N2 and 5% CO2 for 5 minutes. Adult male Sprague-Dawley rats (250 to 350 g weight) were anesthetized with chloral hydrate (0.4 g/kg, intraperitoneally) and right middle cerebral artery (MCA) was ligated for 60 minutes. The core body temperature of animals was maintained at 37° C. throughout the procedure.

[5] = Plasma concentrations of phenserine and its metabolites in beagle dog plasma; format: in vivo
[6] = Lipophilicity (Log D); format: physicochemical
[7] = test system: SH-SY5Y cells; assay: Oxygen-glucose deprivation/reperfusion (OGD/RP) damage on SH-SY5Y cells; format: cell-based, human
Method: as §1

[8] = pre-treatment, brain and SH-SY5Y cells

Chain of amyloid precursor protein (APP) (P12023 whole entry, looked up): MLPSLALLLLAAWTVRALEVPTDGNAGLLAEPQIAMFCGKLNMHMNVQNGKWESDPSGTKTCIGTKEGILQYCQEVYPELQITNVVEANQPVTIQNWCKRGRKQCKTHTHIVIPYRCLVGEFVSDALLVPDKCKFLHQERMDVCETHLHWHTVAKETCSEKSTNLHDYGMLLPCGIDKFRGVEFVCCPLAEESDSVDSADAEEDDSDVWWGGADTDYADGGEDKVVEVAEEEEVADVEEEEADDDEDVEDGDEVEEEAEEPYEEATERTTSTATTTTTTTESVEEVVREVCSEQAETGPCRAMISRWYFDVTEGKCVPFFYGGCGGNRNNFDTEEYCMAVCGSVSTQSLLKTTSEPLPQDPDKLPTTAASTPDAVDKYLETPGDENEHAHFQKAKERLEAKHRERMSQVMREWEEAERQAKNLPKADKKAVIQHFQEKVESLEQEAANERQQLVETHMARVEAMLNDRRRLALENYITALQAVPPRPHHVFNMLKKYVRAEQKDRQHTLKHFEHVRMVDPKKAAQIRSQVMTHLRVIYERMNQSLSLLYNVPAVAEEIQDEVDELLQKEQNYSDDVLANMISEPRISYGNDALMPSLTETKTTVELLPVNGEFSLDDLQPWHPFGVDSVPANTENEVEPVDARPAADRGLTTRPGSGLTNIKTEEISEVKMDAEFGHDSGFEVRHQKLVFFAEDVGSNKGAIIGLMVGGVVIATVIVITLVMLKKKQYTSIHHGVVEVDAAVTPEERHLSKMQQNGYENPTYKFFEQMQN
Chain of acetylcholinesterase (AChE) (P22303 32-574 with tags or gaps limits assumed): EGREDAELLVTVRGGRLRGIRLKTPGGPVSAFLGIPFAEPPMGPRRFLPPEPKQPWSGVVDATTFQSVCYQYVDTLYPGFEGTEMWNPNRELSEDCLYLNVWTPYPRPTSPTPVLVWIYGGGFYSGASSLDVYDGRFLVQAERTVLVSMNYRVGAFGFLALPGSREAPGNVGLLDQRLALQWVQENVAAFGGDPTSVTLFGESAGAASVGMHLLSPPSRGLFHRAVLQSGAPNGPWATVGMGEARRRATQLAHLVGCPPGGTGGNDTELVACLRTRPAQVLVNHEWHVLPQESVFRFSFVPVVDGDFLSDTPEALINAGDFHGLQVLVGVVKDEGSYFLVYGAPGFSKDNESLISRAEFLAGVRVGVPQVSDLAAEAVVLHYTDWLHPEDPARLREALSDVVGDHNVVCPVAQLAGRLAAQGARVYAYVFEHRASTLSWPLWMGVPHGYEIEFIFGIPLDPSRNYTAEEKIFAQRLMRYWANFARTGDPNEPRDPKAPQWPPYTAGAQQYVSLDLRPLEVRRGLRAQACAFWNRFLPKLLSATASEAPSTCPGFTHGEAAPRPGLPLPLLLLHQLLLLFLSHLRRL

## CN1CC[C@@]2(C)c3cc(OC(=O)Nc4ccccc4)ccc3N(C)[C@@H]12 [phenserine, (−)-phenylcarbamoyleseroline]
[1]; Hour 1
  Average Plasma Concentrations: 3.02 ng/mL
[1]; Hour 2
  Average Plasma Concentrations: 2.09 ng/mL
[1]; Hour 3
  Average Plasma Concentrations: 1.08 ng/mL
[1]; Hour 4
  Average Plasma Concentrations: 0.31 ng/mL
[2]
  AChE inhibition in RBCs: 34%
[3]
  amyloid precursor protein level: inhibition of amyloid precursor protein
[4]; pre-treatment
  B-cell lymphoma 2 (Bcl-2) expression: increased
  body symmetry: improved
  brain-derived neurotrophic factor (BDNF) expression: increased
  cell death: reduced
  glial fibrillary acidic protein (GFAP) expression: decreased
[4]; pre-treatment twice daily prior to MCA occlusion
  brain infarction area: reduced
[4]; [8]
  activated-caspase 3 levels: decreased
  amyloid precursor protein (APP) expression: decreased
[5]; Hour 1
  Average Plasma Concentrations: 4.95 ng/mL
[5]; Hour 2
  Average Plasma Concentrations: 15.4 ng/mL
[5]; Hour 3
  Average Plasma Concentrations: 0.71 ng/mL
[5]; Hour 4
  Average Plasma Concentrations: 0.97 ng/mL
[6]
  logD: 2.2
[7]
  matrix metallopeptidase 9 (MMP-9): reduced
